Reference: article PMC9585581, “Developing Photoaffinity Probes for Dopamine Receptor D2 to Determine Targets of Parkinson’s Disease Drugs” (ACS Chemical Neuroscience, 2022)
pEC50: −log10 of the molar value. “Also recorded” adds a separate entry of the source.

What was measured:
[1] = tested on: rat whole brain proteins; experiment: Rat whole brain photo-cross-linking, biotin-streptavidin pulldown and LC/MS proteomics (interactome); format: binding, Sprague Dawley rat; details: probe 50 μM; rat whole brain minus olfactory bulb
From the text: Whole brain assays were designed to assay the binding partners of 5 and 7, as well as a control for the inherent binding of the benzophenone cross-linker using molecule 16 (Figure 7). […] We chose this methodology to maximize the amount of unique hits we were likely to record. A drawback to this assay, however, is that GPCRs need highly specific extraction/purification conditions to be detected by LC-MS (or other protein detection methodologies) at the end point. Thus, by biasing our assay toward a “wide lens” to record a picture of diverse interactions, we missed the specific focus necessary to observe DRD2 and structurally related GPCRs, and we were unable to directly observe DRD2 in the proteomic analysis.
To perform the assay, the whole brain minus the olfactory bulb from an adult female Sprague Dawley rat was homogenized and treated with probes or linker control 16 at a 50 μM concentration and photo-cross-linked. A streptavidin resin was used to deplete endogenous biotin and then clicked with azido biotin, followed by streptavidin pulldown. The streptavidin beads were processed by tryptic digest, followed by LC/MS proteomic analysis. […]
To prepare the homogenate, adult rat brain tissue was microdissected and the olfactory bulb was discarded and sliced into 1 mm pieces. […] The total protein concentration was determined via BCA assay (Pierce) and adjusted to 6 mg/mL. […]

[2] = target: DRD2 (Homo sapiens, UniProt P14416); experiment: PRESTO-TANGO β-arrestin recruitment assay (HTLA cells transfected with DRD2-TANGO, luciferase readout); format: cell-based; design: TEV protease site and fused transcription factor (TANGO module); expressed in transfected cells; host or cells: HTLA cells (gift of G. Barnea), transiently transfected; details: for activity in β-arrestin recruitment (in words): PRESTO-TANGO; for pEC50: PRESTO-TANGO β-arrestin recruitment, luciferase activity, Hill slope of 1.0; for difference in potency of probe vs parent compound: β-arrestin recruitment, probes vs their parent compounds
From the text: To characterize the response of the β-arrestin effector pathway to our ligands, we used the Parallel-Receptor-ome Expression and Screening via Transcriptional Output TANGO (PRESTO-TANGO) assay developed in the Roth lab.[44],[45] This assay uses luciferase activity to monitor β-arrestin recruitment by DRD2 (Figure 3a).
Figure 3 β-Arrestin recruitment analysis. (a) PRESTO-TANGO assay schematic: a ligand binds a chimeric DRD2 receptor, which then recruits β-arrestin fused with a TEV protease. The protease cuts a site between the receptor and a fused transcription factor, which then transits to the […] to initiate transcription of a luciferase gene. The luciferase activity is subsequently quantified.
HTLA cells were a gift from the laboratory of G. Barnea and were maintained in DMEM supplemented with 10% FBS, 100 U/mL penicillin, 100 μg/mL streptomycin, 2 μg/mL puromycin, 100 μg/mL hygromycin B, and 100 μg/mL G418 in a humidified atmosphere at 37 °C in 5% CO2. On day 1, cells were plated at a density of 1 × 10^5 cells/cm^2 in a black wall, clear-bottom 96-well plate (Nunc). The following day (day 2), cells were transfected with a 10× solution of 3:1 mixture of DRD2-TANGO/Optifect Transfection Reagent (Thermo) in unsupplemented DMEM. On day 3, 1× drug stimulation solutions were prepared in filter-sterilized unsupplemented DMEM. The transfection media was shaken or aspirated from the wells, and drug stimulation solutions were gently added. On day 4, drug solutions were removed from one well every 10 s (to maintain consistency of incubation time) and 50 μL per well of Bright-Glo solution (Promega) diluted 20-fold in HBSS was added. After incubation for 2 min at room temperature, luminescence was counted with an integration time of 10 s in a Spectramax i3x plate reader (Molecular Devices).

DRD2, sequence (P14416 whole entry, the tested form may be a part): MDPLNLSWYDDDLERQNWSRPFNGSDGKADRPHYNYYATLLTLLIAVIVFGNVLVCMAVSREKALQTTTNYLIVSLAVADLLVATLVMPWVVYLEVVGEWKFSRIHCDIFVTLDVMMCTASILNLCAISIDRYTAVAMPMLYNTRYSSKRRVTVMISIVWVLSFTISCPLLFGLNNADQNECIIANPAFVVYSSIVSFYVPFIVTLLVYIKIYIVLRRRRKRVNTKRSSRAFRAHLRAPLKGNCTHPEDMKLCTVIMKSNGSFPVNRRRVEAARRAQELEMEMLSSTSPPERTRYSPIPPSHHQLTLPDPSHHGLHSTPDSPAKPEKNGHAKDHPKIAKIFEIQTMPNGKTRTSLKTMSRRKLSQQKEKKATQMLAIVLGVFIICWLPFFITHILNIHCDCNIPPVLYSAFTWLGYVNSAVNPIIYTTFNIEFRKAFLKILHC

SMILES: C#CCOc1ccc(C(=O)c2ccc(CN[C@H]3CCc4nc(N)sc4C3)cc2)cc1 [Compound 7, (S)-(4-(((2-Amino-4,5,6,7-tetrahydrobenzo[d]thiazol-6-yl)amino)methyl)phenyl)(4-(prop-2-yn-1-yloxy)phenyl)methanone]
- protein hits of the pulldown (in words) [1]: bound other protein networks including the retrograde endocannabinoid signaling pathway, neuronal nitric oxide synthase, GABA receptor components, and muscarinic acetylcholine receptor M1
- activity in β-arrestin recruitment (in words) [2]: low micromolar activity
- pEC50 [2]: 6.00
- difference in potency of probe vs parent compound [2]: ~1000 ×

SMILES: C#CCOc1ccc(C(=O)c2ccc(CNCCc3cccc4c3CC(=O)N4)cc2)cc1 [Compound 5, 4-(2-((4-(4-(Prop-2-yn-1-yloxy)benzoyl)benzyl)amino)ethyl)indolin-2-one]
- protein hits of the pulldown (in words) [1]: muscarinic acetylcholine receptor M1 and CB1 cannabinoid receptor-interacting protein 1; also recorded: bound other protein networks including the retrograde endocannabinoid signaling pathway, neuronal nitric oxide synthase, GABA receptor components, and muscarinic acetylcholine receptor M1
- activity in β-arrestin recruitment (in words) [2]: low micromolar activity
- pEC50 [2]: 5.88
- difference in potency of probe vs parent compound [2]: ~1000 ×
